Assay results: patent US10039839B2, “Compounds that participate in cooperative binding and uses thereof” (Warp Drive Bio, Inc., priority 2015, dated 2018)
Square brackets hold non-standard residues; d marks the D form. Peptide text beside a SMILES is read from it. MeBmt = C/C=C/C[C@@H](C)[C@@H](O)[C@H](NC)C(=O)O; NMepY = CN[C@@H](Cc1ccc(OP(=O)(O)O)cc1)C(=O)O; NMeL = CN[C@@H](CC(C)C)C(=O)O; NMeV = CN[C@H](C(=O)O)C(C)C; Abu = CC[C@H](N)C(=O)O; Sar = CNCC(=O)O

Key:
HeLa-Cyclophilin A cells = test: Biosensor cell permeability assay, cyclophilin binding compounds; assay type: cell-based; settings: 72 hrs
Procedure: This protocol utilizes a modified FKBP or cyclophilin destabilizing mutant to determine the bioactivity of FKBP binding compounds or cyclophilin binding compounds in whole cell assay.
Plate HeLa-FKBP12 cells (for FKBP binding compounds) or HeLa-Cyclophilin A cells (for cyclophilin binding compounds) and seed overnight at 5 k/well (approximately ˜18 hrs.). Using a multi-channel pipet, take out the old media and add ˜125 ul of new media with compounds. Compounds are diluted using DMEM without Phenol Red, 10% FBS, 1× Sodium Pyruvate, 1× Glutamax. Add 125 ul of media with compound per well.
Cell binding/permeability is calculated in fold-change (Total RFU of treated samples/total RFU of DMSO treated samples or total RFU above background (Total RFU minus total RFU of DMSO treated samples).

Cyclophilin A = target: T1, Cyclophilin A (Homo sapiens, UniProt P62937); test: biochemical; assay type: binding
T1 construct: made in house
T1 sequence (P62937 whole entry, species assumed): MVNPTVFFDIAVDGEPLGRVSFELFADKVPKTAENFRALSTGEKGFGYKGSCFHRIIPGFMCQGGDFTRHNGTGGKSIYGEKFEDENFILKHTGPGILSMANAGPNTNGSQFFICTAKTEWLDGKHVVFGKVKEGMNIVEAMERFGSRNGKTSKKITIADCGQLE
Procedure: This protocol utilizes Perkin Elmers AlphaLISA technology platform to detect cyclosporine analogues by measuring the inhibition of binding of biotinylated Cyclosporin A to FLAG tagged Cyclophilin A.
Add 20 uL of 6 nM Biotinylated CsA working stock to each well of the 96-well plate. Add 1 uL of test compound (100% DMSO) to each well of the plate using the Janus MTD head and P20 tips (except control wells). Add 1 uL of DMSO to negative control wells and 1 uL of 500 uM Cyclosporin A solution to positive control wells. In the dark, add 20 uL of combined Donor/Acceptor beads to each well. Incubate in the dark for 30 minutes at room temperature. […] Incubate in the dark for 60 minutes at room temperature.

Structure (SMILES) | IC50 (HeLa-Cyclophilin A cells) | IC50 (Cyclophilin A)
C/C=C/C[C@@H](C)[C@@H](O)[C@H]1C(=O)N[C@@H](CC)C(=O)N(C)CC(=O)N(C)[C@@H](C(C)C)C(=O)N[C@@H](C(C)C)C(=O)N(C)[C@@H](CC(C)C)C(=O)N[C@@H](C)C(=O)N[C@H](C)C(=O)N(C)[C@@H](CC(C)C)C(=O)N(C)[C@@H](CC(C)C)C(=O)N(C)[C@@H](C(C)C)C(=O)N1C [C40] (cyclo([MeBmt][Abu][Sar][NMeV]V[NMeL]A[dA][NMeL][NMeL][NMeV])) | < 3 µM | < 2 µM
C/C=C/C[C@@H](C)[C@@H](O)[C@H]1C(=O)N[C@@H](CC)C(=O)N(C)CC(=O)N(C)[C@@H](Cc2ccc(OP(=O)(O)O)cc2)C(=O)N[C@@H](C(C)C)C(=O)N(C)[C@@H](CC(C)C)C(=O)N[C@@H](C)C(=O)N[C@H](C)C(=O)N(C)[C@@H](CC(C)C)C(=O)N(C)[C@@H](CC(C)C)C(=O)N(C)[C@@H](C(C)C)C(=O)N1C [C41] (cyclo([MeBmt][Abu][Sar][NMepY]V[NMeL]A[dA][NMeL][NMeL][NMeV])) | > 3 µM | < 2 µM
